According to ChEMBL document CHEMBL1142678, “Discovery and structure-activity relationship of quinuclidine benzamides as agonists of alpha7 nicotinic acetylcholine receptors” (J Med Chem, 2005):

molecular target: Neuronal acetylcholine receptor; alpha3/beta4 (Homo sapiens, UniProt P30926+P32297); experiment: Antagonistic activity against Nicotinic acetylcholine receptor alpha3-beta4; type: functional
Sequence (P30926 whole entry): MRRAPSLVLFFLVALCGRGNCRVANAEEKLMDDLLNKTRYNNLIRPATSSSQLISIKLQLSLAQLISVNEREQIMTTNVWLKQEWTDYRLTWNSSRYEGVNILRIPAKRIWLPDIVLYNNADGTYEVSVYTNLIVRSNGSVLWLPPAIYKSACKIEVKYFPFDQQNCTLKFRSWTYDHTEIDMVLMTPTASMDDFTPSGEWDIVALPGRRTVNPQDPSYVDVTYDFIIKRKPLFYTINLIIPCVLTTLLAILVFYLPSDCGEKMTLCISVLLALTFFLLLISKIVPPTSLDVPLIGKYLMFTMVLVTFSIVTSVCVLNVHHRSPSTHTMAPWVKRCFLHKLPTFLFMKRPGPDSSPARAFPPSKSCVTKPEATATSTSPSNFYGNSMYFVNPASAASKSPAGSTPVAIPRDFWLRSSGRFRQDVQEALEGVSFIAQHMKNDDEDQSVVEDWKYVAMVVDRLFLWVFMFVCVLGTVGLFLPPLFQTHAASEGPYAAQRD
Sequence (P32297 whole entry): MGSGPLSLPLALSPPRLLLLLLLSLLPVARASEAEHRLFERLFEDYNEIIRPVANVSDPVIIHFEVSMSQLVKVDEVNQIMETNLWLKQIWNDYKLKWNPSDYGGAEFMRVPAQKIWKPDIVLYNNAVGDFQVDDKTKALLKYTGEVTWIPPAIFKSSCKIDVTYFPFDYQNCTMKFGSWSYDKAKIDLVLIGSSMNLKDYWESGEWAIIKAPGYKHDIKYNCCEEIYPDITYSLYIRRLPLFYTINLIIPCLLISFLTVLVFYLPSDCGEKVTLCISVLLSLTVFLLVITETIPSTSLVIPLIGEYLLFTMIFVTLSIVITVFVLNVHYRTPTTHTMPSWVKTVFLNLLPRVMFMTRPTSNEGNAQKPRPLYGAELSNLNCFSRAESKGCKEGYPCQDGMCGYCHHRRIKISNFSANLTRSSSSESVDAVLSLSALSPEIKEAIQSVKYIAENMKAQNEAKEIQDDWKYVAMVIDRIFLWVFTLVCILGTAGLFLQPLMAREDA

Q: For O=C(N[C@H]1CN2CCC1CC2)c1ccc(Cl)cc1 [listing 1 of 2 here], which IC50 is on record?
A: The IC50 was at least 60000 nM.

molecular target: not listed separately; experiment: Antagonistic activity against 5-hydroxytryptamine 3 receptor; type: functional

Q: With O=C(N[C@H]1CN2CCC1CC2)c1cc(Cl)cc2c1OCC2 as the compound, how does the Ki read?
A: Its Ki is 1 nM.

molecular target: not listed separately; experiment: Agonistic activity against Nicotinic acetylcholine receptor alpha-7 - 5-hydroxytryptamine 3 receptor chimera; type: functional

Q: For O=C(N[C@H]1CN2CCC1CC2)c1cccc(Cl)c1, which EC50 is on record?
A: Its EC50 is 1500 nM.

Q: Which EC50 does the source give for O=C(N[C@H]1CN2CCC1CC2)c1ccc(C(F)(F)F)cc1 here?
A: The EC50 was over 100000 nM.

Q: Which EC50 does the source give for O=C(N[C@H]1CN2CCC1CC2)c1ccccc1 here?
A: The EC50 was 1900 nM.

Q: For CC(=O)c1ccc(C(=O)N[C@H]2CN3CCC2CC3)cc1, which EC50 is on record?
A: Its EC50 is 30000 nM.

Q: With CC(=O)Nc1ccc(C(=O)N[C@H]2CN3CCC2CC3)cc1 as the compound, how does the EC50 read?
A: The EC50 was over 100000 nM.

Q: With O=C(N[C@H]1CN2CCC1CC2)c1ccc(Cl)cc1 [listing 1 of 2 here] as the compound, how does the EC50 read?
A: Its EC50 is 154 nM.

Q: With COc1ccc(C(=O)N[C@H]2CN3CCC2CC3)cc1 as the compound, how does the EC50 read?
A: The EC50 was 360 nM.

Q: For O=C(N[C@H]1CN2CCC1CC2)c1ccc(Cl)cc1 [PNU-282987], which EC50 is on record?
A: Its EC50 is 128 nM.

Q: With O=C(N[C@H]1CN2CCC1CC2)c1ccccc1F as the compound, how does the EC50 read?
A: The EC50 was 16700 nM.

Q: Which EC50 does the source give for O=C(N[C@H]1CN2CCC1CC2)c1ccc(SCc2ccccc2)cc1 here?
A: The EC50 was 100000 nM.

Q: Which EC50 does the source give for CS(=O)(=O)c1ccc(C(=O)N[C@H]2CN3CCC2CC3)cc1 here?
A: The EC50 was over 100000 nM.

Q: With O=C(N[C@H]1CN2CCC1CC2)c1ccc(OCc2ccccc2)cc1 as the compound, how does the EC50 read?
A: Its EC50 is over 100000 nM.

Q: Which EC50 does the source give for Cc1ccc(C(=O)N[C@H]2CN3CCC2CC3)cc1 here?
A: Its EC50 is 324 nM.

Q: Which EC50 does the source give for CCc1ccc(C(=O)N[C@H]2CN3CCC2CC3)cc1 here?
A: Its EC50 is 3760 nM.

Q: For O=C(N[C@H]1CN2CCC1CC2)c1cccc(F)c1, which EC50 is on record?
A: The EC50 was 3300 nM.

Q: Which EC50 does the source give for COc1ccccc1C(=O)N[C@H]1CN2CCC1CC2 here?
A: Its EC50 is over 100000 nM.

Q: For O=C(N[C@H]1CN2CCC1CC2)c1ccc(I)cc1, which EC50 is on record?
A: The EC50 was 494 nM.

Q: Which EC50 does the source give for COc1cccc(C(=O)N[C@H]2CN3CCC2CC3)c1 here?
A: Its EC50 is 2200 nM.

Q: For CN(C)c1ccc(C(=O)N[C@H]2CN3CCC2CC3)cc1, which EC50 is on record?
A: The EC50 was 30000 nM.

Q: For O=C(N[C@H]1CN2CCC1CC2)c1ccc(Br)cc1, which EC50 is on record?
A: Its EC50 is 206 nM.

Q: For CSc1ccc(C(=O)N[C@H]2CN3CCC2CC3)cc1, which EC50 is on record?
A: Its EC50 is 164 nM.

Q: Which EC50 does the source give for CC(C)c1ccc(C(=O)N[C@H]2CN3CCC2CC3)cc1 here?
A: The EC50 was over 100000 nM.

Q: Which EC50 does the source give for O=C(N[C@H]1CN2CCC1CC2)c1ccc(F)cc1 here?
A: The EC50 was 506 nM.

Q: Which EC50 does the source give for CCCc1ccc(C(=O)N[C@H]2CN3CCC2CC3)cc1 here?
A: The EC50 was over 100000 nM.

Q: For O=C(N[C@H]1CN2CCC1CC2)c1ccc([N+](=O)[O-])cc1, which EC50 is on record?
A: The EC50 was 1000 nM.

molecular target: T1, Serotonin 3 (5-HT3) receptor (Rattus norvegicus, UniProt P35563+Q9JJ16); experiment: Functional antagonism of rat 5-hydroxytryptamine 3 receptor in cell-based FLIPR assay
T1 sequence (P35563 whole entry): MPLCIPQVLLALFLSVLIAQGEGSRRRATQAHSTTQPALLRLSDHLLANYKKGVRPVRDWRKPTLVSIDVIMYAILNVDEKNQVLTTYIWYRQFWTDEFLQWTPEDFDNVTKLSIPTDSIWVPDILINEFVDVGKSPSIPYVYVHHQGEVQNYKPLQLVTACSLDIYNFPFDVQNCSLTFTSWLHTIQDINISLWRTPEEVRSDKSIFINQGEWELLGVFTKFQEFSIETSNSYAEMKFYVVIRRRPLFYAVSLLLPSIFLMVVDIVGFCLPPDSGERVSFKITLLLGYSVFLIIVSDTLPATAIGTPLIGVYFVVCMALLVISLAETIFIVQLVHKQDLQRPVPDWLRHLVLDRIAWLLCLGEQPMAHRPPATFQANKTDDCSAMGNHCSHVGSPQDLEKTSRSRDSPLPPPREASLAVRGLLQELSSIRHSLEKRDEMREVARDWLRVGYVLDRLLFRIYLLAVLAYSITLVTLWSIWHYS
T1 sequence (Q9JJ16 whole entry): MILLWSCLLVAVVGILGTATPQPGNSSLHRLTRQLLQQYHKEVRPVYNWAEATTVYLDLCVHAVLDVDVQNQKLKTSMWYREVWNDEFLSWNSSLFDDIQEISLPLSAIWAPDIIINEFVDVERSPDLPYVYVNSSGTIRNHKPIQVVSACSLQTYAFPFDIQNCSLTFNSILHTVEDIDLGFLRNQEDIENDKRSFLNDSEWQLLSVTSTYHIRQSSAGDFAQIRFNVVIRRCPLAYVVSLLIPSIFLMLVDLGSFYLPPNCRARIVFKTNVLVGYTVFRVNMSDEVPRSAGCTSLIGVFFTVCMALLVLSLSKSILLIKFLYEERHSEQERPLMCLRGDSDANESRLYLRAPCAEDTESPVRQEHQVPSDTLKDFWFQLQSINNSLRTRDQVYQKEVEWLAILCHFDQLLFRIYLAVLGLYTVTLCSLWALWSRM

Q: With O=C(N[C@H]1CN2CCC1CC2)c1ccc(Cl)cc1 [listing 1 of 2 here] as the compound, how does the IC50 read?
A: Its IC50 is 4540 nM.

molecular target: T1, Serotonin 3 (5-HT3) receptor; experiment: Inhibition of [3H]GR-65630 binding to 5-hydroxytryptamine 3 receptor from rat brain homogenates

Q: Which Ki does the source give for O=C(N[C@H]1CN2CCC1CC2)c1ccc(Cl)cc1 [listing 1 of 2 here] here?
A: Its Ki is 1660 nM.

molecular target: Acetylcholine receptor; alpha1/beta1/delta/gamma (Homo sapiens, UniProt P02708+P07510+P11230+Q07001); experiment: Antagonistic activity against Nicotinic acetylcholine receptor alpha-1-beta-1-delta-gamma; type: functional
Sequence (P02708 whole entry): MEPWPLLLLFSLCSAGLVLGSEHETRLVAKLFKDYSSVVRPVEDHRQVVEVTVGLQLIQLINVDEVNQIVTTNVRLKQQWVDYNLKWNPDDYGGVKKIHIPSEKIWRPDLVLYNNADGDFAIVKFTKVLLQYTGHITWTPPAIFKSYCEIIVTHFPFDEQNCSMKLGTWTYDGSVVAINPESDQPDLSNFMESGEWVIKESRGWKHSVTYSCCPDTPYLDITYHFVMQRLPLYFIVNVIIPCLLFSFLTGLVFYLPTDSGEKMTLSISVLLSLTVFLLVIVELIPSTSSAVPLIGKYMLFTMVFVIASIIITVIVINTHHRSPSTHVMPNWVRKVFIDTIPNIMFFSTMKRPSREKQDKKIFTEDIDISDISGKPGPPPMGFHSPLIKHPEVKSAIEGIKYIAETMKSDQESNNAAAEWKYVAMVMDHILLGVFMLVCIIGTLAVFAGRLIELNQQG
Sequence (P07510 whole entry): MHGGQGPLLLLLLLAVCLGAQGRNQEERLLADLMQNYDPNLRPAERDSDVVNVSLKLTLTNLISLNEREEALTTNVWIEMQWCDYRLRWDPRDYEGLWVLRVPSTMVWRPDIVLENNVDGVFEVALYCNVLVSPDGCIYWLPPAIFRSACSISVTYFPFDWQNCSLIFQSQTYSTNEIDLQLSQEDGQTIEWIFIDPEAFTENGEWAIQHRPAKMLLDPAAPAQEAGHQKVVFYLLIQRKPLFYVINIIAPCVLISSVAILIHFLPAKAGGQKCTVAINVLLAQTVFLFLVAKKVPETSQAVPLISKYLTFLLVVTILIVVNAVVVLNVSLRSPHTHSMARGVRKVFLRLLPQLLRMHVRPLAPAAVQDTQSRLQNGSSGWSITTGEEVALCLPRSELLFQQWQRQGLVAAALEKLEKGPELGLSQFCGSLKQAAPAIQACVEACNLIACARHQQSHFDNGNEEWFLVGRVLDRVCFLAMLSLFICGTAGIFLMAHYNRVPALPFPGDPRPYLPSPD
Sequence (P11230 whole entry): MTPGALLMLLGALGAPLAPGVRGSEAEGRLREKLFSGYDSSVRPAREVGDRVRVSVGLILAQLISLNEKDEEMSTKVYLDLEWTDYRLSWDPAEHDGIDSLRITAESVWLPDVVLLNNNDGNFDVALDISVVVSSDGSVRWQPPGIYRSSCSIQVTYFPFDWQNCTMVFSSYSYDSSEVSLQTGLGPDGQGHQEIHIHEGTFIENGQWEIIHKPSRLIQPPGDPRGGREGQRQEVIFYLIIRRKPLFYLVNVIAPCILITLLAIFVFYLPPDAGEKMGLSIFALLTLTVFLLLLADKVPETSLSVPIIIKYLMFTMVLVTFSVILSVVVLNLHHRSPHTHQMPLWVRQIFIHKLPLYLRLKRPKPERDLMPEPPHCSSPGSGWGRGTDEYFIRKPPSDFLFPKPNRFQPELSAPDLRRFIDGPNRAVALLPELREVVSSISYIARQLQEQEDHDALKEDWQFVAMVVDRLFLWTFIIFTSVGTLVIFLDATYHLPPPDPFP
Sequence (Q07001 whole entry): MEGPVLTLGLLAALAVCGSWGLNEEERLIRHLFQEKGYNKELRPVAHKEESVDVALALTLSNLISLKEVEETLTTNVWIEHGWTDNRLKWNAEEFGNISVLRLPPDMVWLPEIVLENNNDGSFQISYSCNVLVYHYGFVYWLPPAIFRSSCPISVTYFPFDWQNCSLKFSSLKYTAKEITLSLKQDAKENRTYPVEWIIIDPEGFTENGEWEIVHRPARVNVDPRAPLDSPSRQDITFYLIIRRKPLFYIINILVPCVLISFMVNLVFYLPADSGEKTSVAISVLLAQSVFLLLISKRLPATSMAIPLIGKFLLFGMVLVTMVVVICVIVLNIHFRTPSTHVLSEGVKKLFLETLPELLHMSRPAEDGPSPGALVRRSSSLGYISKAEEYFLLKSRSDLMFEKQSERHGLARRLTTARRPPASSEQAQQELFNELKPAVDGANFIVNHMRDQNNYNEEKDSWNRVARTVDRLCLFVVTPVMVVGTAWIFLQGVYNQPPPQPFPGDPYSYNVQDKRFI

Q: For O=C(N[C@H]1CN2CCC1CC2)c1ccc(Cl)cc1 [listing 1 of 2 here], which IC50 is on record?
A: The IC50 was at least 60000 nM.

molecular target: Neuronal acetylcholine receptor subunit alpha-7 (Rattus norvegicus, UniProt Q05941); experiment: Inhibition of methyllycaconitine (MLA) binding to Nicotinic acetylcholine receptor alpha-7 in rat brain homogenates; type: tissue-based
Sequence (Q05941 whole entry): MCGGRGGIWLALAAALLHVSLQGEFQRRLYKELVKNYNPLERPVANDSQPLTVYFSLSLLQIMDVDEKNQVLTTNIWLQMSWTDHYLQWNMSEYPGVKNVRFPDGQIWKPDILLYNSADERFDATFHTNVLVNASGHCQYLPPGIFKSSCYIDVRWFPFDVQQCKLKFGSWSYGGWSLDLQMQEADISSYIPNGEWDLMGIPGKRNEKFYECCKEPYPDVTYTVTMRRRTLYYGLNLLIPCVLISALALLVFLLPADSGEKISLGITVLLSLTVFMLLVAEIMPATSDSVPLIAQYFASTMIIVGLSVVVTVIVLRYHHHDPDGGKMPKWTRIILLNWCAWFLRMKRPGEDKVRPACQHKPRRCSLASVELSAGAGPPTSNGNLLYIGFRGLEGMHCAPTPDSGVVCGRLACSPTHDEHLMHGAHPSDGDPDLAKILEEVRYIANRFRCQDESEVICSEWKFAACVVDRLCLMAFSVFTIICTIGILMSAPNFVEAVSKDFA

Q: For O=C(N[C@H]1CN2CCC1CC2)c1ccc(Cl)cc1 [listing 1 of 2 here], which Ki is on record?
A: Its Ki is 27 nM.

molecular target: Neuronal acetylcholine receptor; alpha4/beta2 (Rattus norvegicus) (UniProt P09483+P12390); experiment: Inhibition of [3H]cytisine binding to Nicotinic acetylcholine receptor alpha4-beta2 from rat brain homogenates at 1 uM

Q: With O=C(N[C@H]1CN2CCC1CC2)c1ccc(Cl)cc1 [listing 2 of 2 here] as the compound, how does the inhibition read?
A: Its inhibition is 14%.
